According to patent US7396837B2, “Antitumoral analogs of lamellarins” (Pharma Mar, S.A.U., priority 2002, dated 2008):

How the values were obtained:
Type in all cases: cell-based
DU-145 = test: SRB colorimetric cell growth inhibition assay, DU-145; settings: Homo sapiens, DU-145, DU-145
In short: (§1)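 Cells are kept under uninterrupted exposure to compound. Staining with sulforhodamine B then measures cell growth and viability. Triplicate data give mean ± SD, from which growth inhibition, total growth inhibition and lethal concentration values follow.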

LoVo-Dox = test: SRB colorimetric cell growth inhibition assay, LoVo-Dox (MDR); settings: Homo sapiens, LOVO-DOX
In short: as §1

SK-BR-3 = test: SRB colorimetric cell growth inhibition assay, SK-BR-3; settings: Homo sapiens, SK-BR-3, SK-BR-3
In short: as §1

SK-MEL-28 = test: SRB colorimetric cell growth inhibition assay, SK-MEL-28; settings: Homo sapiens, SK-MEL-28, MEL-28
In short: as §1

H-MEC-1 = test: SRB colorimetric cell growth inhibition assay, H-MEC-1; settings: Homo sapiens, HMEC-1, H-MEC-1
In short: (§2)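 Sulforhodamine B colorimetric assay of cell growth and viability, mean ± SD of triplicate wells. Parameters derived: GI (growth inhibition), TGI (total growth inhibition, cytostatic) and LC (cell killing, cytotoxic).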

[1] = as above; settings: human, H-MEC-1 cells; H-MEC-1; cell killing (cytotoxic effect); read-out: LC50 H-MEC-1
In short: as §2

PANC-1 = test: SRB colorimetric cell growth inhibition assay, PANC-1; settings: Homo sapiens, PANC-1, PANC-1
In short: as §1

IGROV = test: SRB colorimetric cell growth inhibition assay, IGROV; settings: Homo sapiens, IGROV
In short: as §1

HT-29 = test: SRB colorimetric cell growth inhibition assay, HT-29; settings: Homo sapiens, HT-29, HT-29
In short: as §1

LNCaP = test: SRB colorimetric cell growth inhibition assay, LNCaP; settings: Homo sapiens, LNCaP, LN-caP
In short: as §1

IGROV-ET = test: SRB colorimetric cell growth inhibition assay, IGROV-ET (ET-743 resistant); settings: Homo sapiens, IGROV-ET
In short: as §1

LoVo = test: SRB colorimetric cell growth inhibition assay, LoVo; settings: Homo sapiens, LoVo
In short: as §1

SKOV-3 = test: SRB colorimetric cell growth inhibition assay, SKOV-3; settings: Homo sapiens
In short: as §2

K-562 = test: SRB colorimetric cell growth inhibition assay, K-562; settings: Homo sapiens, K562, K-562
In short: as §1

A-549 = test: SRB colorimetric cell growth inhibition assay, A-549; settings: Homo sapiens, A549, A-549
In short: as §1

COc1cc(-c2c3c4cc(OC)c(O)cc4oc(=O)c3n3ccc4cc(OC)c(OC)cc4c23)ccc1O [Compound 26]
GI50 (DU-145; GI=growth inhibition, read-out: GI50 DU-145): 0.611 µM | CC50 (DU-145; cell killing (cytotoxic effect), read-out: LC50 DU-145): 19.5 µM | IC (TGI) (DU-145; total growth inhibition (cytostatic effect), read-out: TGI DU-145): 2.94 µM | GI50 (LoVo-Dox; GI=growth inhibition, read-out: GI50 LOVO-DOX): 0.867 µM | CC50 (LoVo-Dox; cell killing (cytotoxic effect), read-out: LC50 LOVO-DOX): 19.5 µM | IC (TGI) (LoVo-Dox; total growth inhibition (cytostatic effect), read-out: TGI LOVO-DOX): 7.63 µM | GI50 (SK-BR-3; GI=growth inhibition, read-out: GI50 SK-BR-3): 0.0966 µM | CC50 (SK-BR-3; cell killing (cytotoxic effect), read-out: LC50 SK-BR-3): 13.6 µM | IC (TGI) (SK-BR-3; total growth inhibition (cytostatic effect), read-out: TGI SK-BR-3): 1.09 µM | GI50 (SK-MEL-28; GI=growth inhibition, read-out: GI50 MEL-28): 2.08 µM | CC50 (SK-MEL-28; cell killing (cytotoxic effect), read-out: LC50 MEL-28): 19.5 µM | IC (TGI) (SK-MEL-28; total growth inhibition (cytostatic effect), read-out: TGI MEL-28): 7.79 µM | GI50 (H-MEC-1; GI=growth inhibition, read-out: GI50 H-MEC-1): 0.798 µM | IC (TGI) (H-MEC-1; total growth inhibition (cytostatic effect), read-out: TGI H-MEC-1): 19.5 µM | LC50 (concentration giving 50% net cell killing) [1]: 19.5 µM | GI50 (PANC-1; GI=growth inhibition, read-out: GI50 PANC-1): 1.07 µM | CC50 (PANC-1; cell killing (cytotoxic effect), read-out: LC50 PANC-1): 19.5 µM | IC (TGI) (PANC-1; total growth inhibition (cytostatic effect), read-out: TGI PANC-1): 8.8 µM | GI50 (IGROV; GI=growth inhibition, read-out: GI50 IGROV): 0.504 µM | CC50 (IGROV; cell killing (cytotoxic effect), read-out: LC50 IGROV): 13 µM | IC (TGI) (IGROV; total growth inhibition (cytostatic effect), read-out: TGI IGROV): 2.3 µM | GI50 (HT-29; GI=growth inhibition, read-out: GI50 HT-29): 9.17 µM | CC50 (HT-29; cell killing (cytotoxic effect), read-out: LC50 HT-29): 19.5 µM | IC (TGI) (HT-29; total growth inhibition (cytostatic effect), read-out: TGI HT-29): 19.5 µM | GI50 (LNCaP; GI=growth inhibition, read-out: GI50 LN-caP): 0.711 µM | CC50 (LNCaP; cell killing (cytotoxic effect), read-out: LC50 LN-caP): 14.7 µM | IC (TGI) (LNCaP; total growth inhibition (cytostatic effect), read-out: TGI LN-caP): 4.3 µM | GI50 (IGROV-ET; GI=growth inhibition, read-out: GI50 IGROV-ET): 0.574 µM | CC50 (IGROV-ET; cell killing (cytotoxic effect), read-out: LC50 IGROV-ET): 19.5 µM | IC (TGI) (IGROV-ET; total growth inhibition (cytostatic effect), read-out: TGI IGROV-ET): 2.08 µM | GI50 (LoVo; GI=growth inhibition, read-out: GI50 LOVO): 1.19 µM | CC50 (LoVo; cell killing (cytotoxic effect), read-out: LC50 LOVO): 19.5 µM | IC (TGI) (LoVo; total growth inhibition (cytostatic effect), read-out: TGI LOVO): 10 µM | GI50 (SKOV-3; SK-OV-3, SKOV-3, GI=growth inhibition, read-out: GI50 SKOV-3): 0.874 µM | LC50 (concentration causing 50% net cell killing) (SKOV-3; SK-OV-3, SKOV-3, cell killing (cytotoxic effect), read-out: LC50 SKOV-3): 19.5 µM | IC (TGI) (SKOV-3; SK-OV-3, SKOV-3, total growth inhibition (cytostatic effect), read-out: TGI SKOV-3): 5.53 µM | GI50 (K-562; GI=growth inhibition, read-out: GI50 K-562): 0.785 µM | CC50 (K-562; cell killing (cytotoxic effect), read-out: LC50 K-562): 16.1 µM | IC (TGI) (K-562; total growth inhibition (cytostatic effect), read-out: TGI K-562): 3.41 µM | GI50 (A-549; GI=growth inhibition, read-out: GI50 A-549): 1.11 µM | CC50 (A-549; cell killing (cytotoxic effect), read-out: LC50 A-549): 19.5 µM | IC (TGI) (A-549; total growth inhibition (cytostatic effect), read-out: TGI A-549): 8.1 µM
